According to the OligoGym collection:
HELM strings list units from the 5' end as sugar, base in round brackets, then linkage (d deoxyribose, r ribose, m 2'-O-methyl, p phosphodiester). Strings are as the collection lists them, not checked against the first reports. ss, as = sense and antisense strand; [s4r] = 4'-thioribose; [fl2r] = 2'-fluoro

Settings: siRNA
Further: test system not given here.

Substance	target mRNA knockdown
RNA1{r(A)p.r(A)p.m(U)p.r(A)p.r(A)p.r(G)p.m(C)p.r(A)p.r(G)p.r(C)p.r(U)p.r(C)p.r(G)p.r(C)p.r(G)p.r(C)p.r(U)p.r(C)p.r(C)p.r(T)p.r(T)}|RNA2{r(G)p.r(G)p.r(A)p.r(G)p.r(C)p.r(G)p.r(C)p.r(G)p.r(A)p.r(G)p.r(C)p.r(U)p.r(G)p.r(C)p.r(U)p.m(U)p.r(A)p.r(U)p.r(U)p.r(T)p.r(T)}$$$RNA1{StrandType:ss}|RNA2{StrandType:as}$	54%
RNA1{r(A)p.r(A)p.m(U)p.r(A)p.r(A)p.r(G)p.r(C)p.r(A)p.r(G)p.r(C)p.r(U)p.r(C)p.r(G)p.r(C)p.r(G)p.r(C)p.r(U)p.r(C)p.r(C)p.r(T)p.r(T)}|RNA2{r(G)p.r(G)p.r(A)p.r(G)p.r(C)p.r(G)p.r(C)p.r(G)p.r(A)p.r(G)p.r(C)p.r(U)p.r(G)p.r(C)p.r(U)p.m(U)p.r(A)p.r(U)p.r(U)p.r(T)p.r(T)}$$$RNA1{StrandType:ss}|RNA2{StrandType:as}$	69%
RNA1{r(A)p.r(A)p.r(A)p.r(C)p.[fl2r](C)p.[fl2r](A)p.r(G)p.r(G)p.[fl2r](A)p.r(A)p.r(G)p.[fl2r](G)p.r(G)p.r(G)p.r(A)p.r(A)p.r(A)p.r(U)p.r(C)p.r(T)p.r(T)}|RNA2{r(G)p.r(A)p.r(U)p.r(U)p.r(U)p.r(C)p.r(C)p.r(C)p.r(C)p.r(U)p.r(U)p.r(C)p.r(C)p.[fl2r](U)p.[fl2r](G)p.r(G)p.r(U)p.r(U)p.r(U)p.r(T)p.r(T)}$$$RNA1{StrandType:ss}|RNA2{StrandType:as}$	61%
RNA1{r(A)p.r(A)p.r(A)p.r(C)p.[fl2r](C)p.[fl2r](A)p.r(G)p.r(G)p.r(A)p.r(A)p.r(G)p.r(G)p.r(G)p.r(G)p.r(A)p.r(A)p.r(A)p.r(U)p.r(C)p.r(T)p.r(T)}|RNA2{r(G)p.r(A)p.r(U)p.r(U)p.r(U)p.r(C)p.r(C)p.r(C)p.r(C)p.r(U)p.r(U)p.r(C)p.r(C)p.r(U)p.r(G)p.r(G)p.r(U)p.r(U)p.r(U)p.r(T)p.r(T)}$$$RNA1{StrandType:ss}|RNA2{StrandType:as}$	64%
RNA1{r(A)p.r(A)p.r(A)p.r(C)p.m(C)p.r(U)p.m(C)p.r(A)p.r(G)p.r(C)p.r(C)p.r(C)p.m(U)p.r(A)p.r(A)p.r(C)p.r(G)p.r(G)p.r(U)p.r(T)p.r(T)}|RNA2{r(A)p.r(C)p.r(C)p.r(G)p.r(U)p.m(U)p.r(A)p.r(G)p.r(G)p.r(G)p.r(C)p.m(U)p.r(G)p.r(A)p.r(G)p.r(G)p.r(U)p.r(U)p.r(U)p.r(T)p.r(T)}$$$RNA1{StrandType:ss}|RNA2{StrandType:as}$	79%
RNA1{r(A)p.r(A)p.r(A)p.r(C)p.r(A)p.r(U)p.r(G)p.r(C)p.r(A)p.r(G)p.r(A)p.r(A)p.r(A)p.r(A)p.r(U)p.r(G)p.r(C)p.r(U)p.r(G)p.r(T)p.r(T)}|RNA2{[s4r](C)p.[s4r](A)p.r(G)p.r(C)p.r(A)p.r(U)p.r(U)p.r(U)p.r(U)p.r(C)p.r(U)p.r(G)p.r(C)p.r(A)p.r(U)p.r(G)p.r(U)p.[s4r](U)p.[s4r](U)p.r(T)p.r(T)}$$$RNA1{StrandType:ss}|RNA2{StrandType:as}$	42.5%
RNA1{r(A)p.r(A)p.r(A)p.r(C)p.r(A)p.r(U)p.r(G)p.r(C)p.r(A)p.r(G)p.r(A)p.r(A)p.r(A)p.r(A)p.r(U)p.r(G)p.r(C)p.r(U)p.r(G)p.r(T)p.r(T)}|RNA2{r(C)p.r(A)p.r(G)p.r(C)p.r(A)p.r(U)p.r(U)p.r(U)p.r(U)p.r(C)p.r(U)p.r(G)p.r(C)p.r(A)p.r(U)p.[s4r](G)p.[s4r](U)p.[s4r](U)p.[s4r](U)p.r(T)p.r(T)}$$$RNA1{StrandType:ss}|RNA2{StrandType:as}$	52.7%
RNA1{r(A)p.r(A)p.r(A)p.r(C)p.r(A)p.r(U)p.r(G)p.r(C)p.r(A)p.r(G)p.r(A)p.r(A)p.r(A)p.r(A)p.r(U)p.r(G)p.r(C)p.r(U)p.r(G)p.r(T)p.r(T)}|RNA2{r(C)p.r(A)p.r(G)p.r(C)p.r(A)p.r(U)p.r(U)p.r(U)p.r(U)p.r(C)p.r(U)p.r(G)p.r(C)p.r(A)p.r(U)p.r(G)p.r(U)p.[s4r](U)p.[s4r](U)p.r(T)p.r(T)}$$$RNA1{StrandType:ss}|RNA2{StrandType:as}$	57.2%
